Patent publication US8679766B2, “E-cadherin as a biomarker of gastroesophageal reflux disease” (The University of North Carolina at Chapel Hill, priority 2009, dated 2014)
Entries after “also recorded” stand apart in the source; their conditions may differ. Read-outs that look alike come from different tables or passages of the source.

How the values were obtained:
rabbit EE [1] = test: Barrier breaker search: rabbit EE in U-chambers, monitoring RT (marker of PCP) and Isc; assay type: cell-based
From the text: Agents that increase paracellular permeability (PCP) in EE are potential contributors to GERD by enabling diffusion of luminal acid into the intercellular space. Therefore, substances were sought within the refluxate, meals and inflammation that could ‘break the barrier’. This was done by exposing rabbit EE in U-chambers to candidate inflammatory agents while both monitoring RT, as a marker of PCP, and Isc (short circuit current), as a marker of active transport. The inflammatory agents were selected based on presence in EE or on reports that they can break the barrier in other epithelia (47-60).

rabbit EE [2] = conditions: cited from earlier work
esophagitis [3] = conditions: rat model of reflux; cited from earlier work
esophagitis [4] = conditions: patients with duodeno-esophageal reflux post-gastrectomy; cited from earlier work
rabbit EE [5] = test: Ca++-switch technique: junctional opening and resealing (RT) in EE; assay type: cell-based
From the text: Below the TJ is the adherens junction (AJ), a structure that encircles the cell and initiates and stabilizes cell-cell adhesion, and by doing so, the AJ supports the barrier function of the TJ (36, 37). The single-pass, transmembrane protein of the AJ is the Ca^++-dependent E-cadherin (E-cad) and this connects directly to a group of catenins (α-catenin, β-catenin, p120-catenin), which in turn connect E-cad to the cytoskeleton via α-catenin's interaction with actin microfilaments, to the microtubules via p120-catenin's interaction with PLEKHA7/nezha and tubulins (38, 39), and to the TJ via p120-catenin's binding to ZO-136. Cell-cell adhesion by E-cad results from the Ca^++-dependent, homotypic, association between the extracellular domains of neighboring cells. Indeed, the Ca^++ sensitivity is so characteristic that it forms the basis of the ‘Ca^++-switch technique’ where Ca^++ removal from both bathing solutions results in junctional opening (decline in RT) and its restoration results in ‘resealing’ (recovery of RT) (40). This method was used to define the role of E-cad in junctional adhesion in EE (41). Removing Ca^++ lowered RT by about 35% over 2 hrs while restoration returned RT to baseline (41). […] Further, resealing was also shown to be dependent on E-cad because it was inhibited by antibodies (HECD-1, DECMA-1) or small synthetic peptides to its extracellular (N-terminal) domain of E-cad, but not by […] antibodies (4A2C7) to its intracellular (C-terminal) domain (41).
E-cadherin is a component of the adherens junction, a structure known to be important in junctional barrier function in most epithelia, including that of the esophagus (36, 41, 121). It is a single-span, transmembrane protein whose carboxy (C)-terminus resides in the cytoplasm and whose amino (N)-terminus resides in the intercellular space. The N-terminus of E-cadherin molecules from membranes of adjacent cells form a barrier by calcium-dependent binding to each other within the intercellular space. Since the protein bridges of E-cadherin both encircle the cell membrane and support the adhesion of the bridging proteins (occludin and claudins) forming the tight junction, they play an integral role in establishing junctional (electrical) resistance and controlling junctional permeability. This role for E-cadherin in (rabbit) EE has recently been shown in the Ussing chamber using the calcium-switch technique (41).

rabbit EE [6] = test: Junctional opening (RT) of EE by exposure to luminal HCl pH 1.6; assay type: cell-based; conditions: microtubule stabilizer taxol
[7] = tested on: cleavage of E-cad in rabbit EE; test: Acid-activated cleavage of E-cad in Ussing-chambered rabbit EE, W-blot for CTF with C-terminal antibody 4A2C7; assay type: cell-based
[8] = γ-secretase inhibitor 10 μM, acid-exposed EE

## C[C@H](CCC(=O)NCCS(=O)(=O)O)[C@H]1CC[C@H]2[C@@H]3[C@H](O)C[C@@H]4C[C@H](O)CC[C@]4(C)[C@H]3C[C@H](O)[C@]12C [taurocholic acid]
Rabbit EE [1]; at pH 2
  breaks the barrier (RT as marker of PCP): barrier breakers

## trypsin: barrier breaker at pH 7.4, can be present within refluxates of near-neutral pH
Rabbit EE [1]; at pH 7.4
  breaks the barrier (RT as marker of PCP): barrier breakers
Rabbit EE [1]; luminal exposure
  junctional damage by luminal trypsin (DIS, E-cad cleavage): results in both DIS (61) and cleavage of E-cad's extracellular domain

## O=S(=O)(O)CCN1CCN(CCO)CC1 [HEPES]
Rabbit EE [2]; serosal HEPES
  luminal acid-induced increase in PCP (reduction in RT): without preventing the luminal acid-induced increase in PCP
Rabbit EE [2]; serosal buffer replacing bathing solution bicarbonate
  luminal acid-induced cell necrosis: prevented

## CN(C)C(=O)COC(=O)Cc1ccc(OC(=O)c2ccc(NC(=N)N)cc2)cc1 [camostat mesilate]
Esophagitis [3]
  esophagitis: reduce esophagitis
Esophagitis [4]
  esophagitis: reduce esophagitis

## CC(=O)O[C@H]1C(=O)[C@@]2(C)[C@H]([C@H](OC(=O)c3ccccc3)[C@]3(O)C[C@H](OC(=O)[C@H](O)[C@@H](NC(=O)c4ccccc4)c4ccccc4)C(C)=C1C3(C)C)[C@]1(OC(C)=O)CO[C@@H]1C[C@@H]2O [taxol]
Rabbit EE [5]; microtubule stabilizer, 50 μM
  junctional opening by Ca++-free soln: inhibited
Rabbit EE [5]; taxol, data normalized at the end of junctional opening in Ca++-free solution
  junctional resealing: Inhibition of resealing
Rabbit EE [6]
  junctional opening by exposure to luminal pH 1.6: inhibit junctional opening

## CNC(=O)[C@@H](NC(=O)[C@H](CC(C)C)[C@H](O)C(=O)NO)C(C)(C)C [Marimastat]
[7]; Marimastat 10 μM, luminal HCl pH 1.1 for 30 min or serosal HCl pH 2.0 for 5 min
  cleavage of E-cad: blocked; also recorded: abolition

## C=C1[C@@H](C)[C@H]2[C@H](Cc3ccccc3)NC(=O)[C@]23[C@H](OC(C)=O)/C=C/[C@@](C)(O)C(=O)[C@@H](C)C/C=C/[C@H]3[C@@H]1O [cytochalasin D]
Rabbit EE [5]; microfilament destabilizer, 2 uM
  junctional resealing during the Ca++-switch technique: inhibited

## C[C@H](NC(=O)Cc1cc(F)cc(F)c1)C(=O)N[C@H](C(=O)OC(C)(C)C)c1ccccc1 [DAPT75, DAPT]
[7]; [8]
  cleavage of E-cad: did not block cleavage
  pattern of E-cad cleavage (CTFs on W-blot): yielding two CTFs instead of one

## CCO [alcohol]
Rabbit EE [1]; at pH 7.4
  breaks the barrier (RT as marker of PCP): barrier breakers

## CC(=O)Nc1ccc(C=Cc2ccc(N=C=S)cc2S(=O)(=O)O)c(S(=O)(=O)O)c1 [SITS, 4-acetoamido-4′-isothiocyanostilbene-2,2′-disulfonic acid]
Rabbit EE [2]; serosal HCl pH 2.0, serosal pretreatment 4 mM
  cell swelling and necrosis: prevented

## COc1cc2c(c(OC)c1OC)-c1ccc(OC)c(=O)cc1[C@@H](NC(C)=O)CC2 [colchicine]
Rabbit EE [5]; microtubule destabilizer
  junctional resealing during the Ca++-switch technique: inhibited
